# Test results published in patent US8846704B2, “Thiopyrimidine-based compounds and uses thereof” (YM Biosciences Austraila Pty Ltd, priority 2007, dated 2014).
# Target: T1, BaF3 TELJAK3 cells (Homo sapiens, UniProt P52333)
# T1 construct: fused on or other part: TEL (ETV6) N-terminal part, coding nucleotides 1-487, serves as the oligomerising partner; It is fused through a Sal I site to the JAK3 kinase domain and expressed from pTRE2 in BaF3 cells bearing pTET-off; P41212 (Transcription factor ETV6)
# T1 sequence (P52333 1-1124): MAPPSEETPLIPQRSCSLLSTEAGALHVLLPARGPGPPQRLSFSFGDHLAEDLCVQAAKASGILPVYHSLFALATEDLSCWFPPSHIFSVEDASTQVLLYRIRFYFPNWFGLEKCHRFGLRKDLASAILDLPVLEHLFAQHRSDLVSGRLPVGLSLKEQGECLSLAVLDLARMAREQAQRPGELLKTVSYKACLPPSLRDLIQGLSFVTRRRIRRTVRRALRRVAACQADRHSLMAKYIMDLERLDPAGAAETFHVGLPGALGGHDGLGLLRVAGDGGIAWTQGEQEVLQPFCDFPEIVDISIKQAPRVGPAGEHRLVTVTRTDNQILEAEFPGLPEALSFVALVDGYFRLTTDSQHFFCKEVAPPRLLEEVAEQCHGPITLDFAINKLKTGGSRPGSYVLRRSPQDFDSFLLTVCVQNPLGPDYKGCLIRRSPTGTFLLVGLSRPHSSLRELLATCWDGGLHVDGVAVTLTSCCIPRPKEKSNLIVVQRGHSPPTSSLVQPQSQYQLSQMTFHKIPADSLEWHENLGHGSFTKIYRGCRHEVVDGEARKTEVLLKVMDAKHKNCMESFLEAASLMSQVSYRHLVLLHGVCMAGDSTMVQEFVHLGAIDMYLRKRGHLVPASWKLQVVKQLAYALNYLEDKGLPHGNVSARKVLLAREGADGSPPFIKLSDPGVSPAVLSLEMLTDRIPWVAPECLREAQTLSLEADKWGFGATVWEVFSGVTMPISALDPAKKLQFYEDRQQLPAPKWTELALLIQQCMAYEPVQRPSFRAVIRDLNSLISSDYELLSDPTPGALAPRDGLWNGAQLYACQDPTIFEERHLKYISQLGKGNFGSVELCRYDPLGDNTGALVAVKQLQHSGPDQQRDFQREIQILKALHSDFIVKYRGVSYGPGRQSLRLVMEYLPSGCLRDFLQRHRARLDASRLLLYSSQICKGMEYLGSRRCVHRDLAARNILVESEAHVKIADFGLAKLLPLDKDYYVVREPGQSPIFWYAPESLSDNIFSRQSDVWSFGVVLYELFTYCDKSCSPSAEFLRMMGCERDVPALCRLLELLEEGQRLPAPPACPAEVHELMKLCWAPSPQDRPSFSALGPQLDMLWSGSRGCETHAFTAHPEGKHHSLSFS
# Assay: Cellular screening, BaF3 TEL:JAK3 cells, Alamar Blue
# Type: cell-based
# Settings: 40 hr, read-out: BafT_J3 IC50_nM
# Experimental: For screening purposes, compounds were diluted in 96 well plates at a concentration of 20 μM. Plates were warmed at 37° C. for 30 minutes before the assay was performed.
# The coding region encompassing nucleotides 1-487 of TEL was amplified by PCR using the oligonucleotides STEL (5′-GGAGGATCCTGATCTCTCTCGCTGTGAGAC-3′) [SEQ ID NO 14] and 3TEL (5′-AGGC GTCGACTTCTTCTTCATGGTTCTG-3′) [SEQ ID NO 15] and U937 mRNA as a template. A […] restriction site was incorporated into the STEL primer, and a Sal I restriction site was incorporated into the 3TEL primer. The regions encompassing the kinase domain of JAK2 (nucleotides 2994-3914; JAK2F 5′-ACGC GTCGACGGTGCCTTTGAAGACCGGGAT-3′ [SEQ ID NO 16]; JAK2R 5′-ATAGTTTAGCGGCCGCTCAGAATGAAGGTCATTT-3′) [SEQ ID NO 17] and JAK3 (nucleotides 2520-3469; JAK3F 5′-GAAGTCGACTATGCCTGCCAAGACCCCACGATCTT-3′) [SEQ ID NO 18] were generated by PCR using Taq DNA polymerase (Gibco/BRL) and […] as a template. A Sal I restriction site was incorporated into the forward primer of JAK2 and JAK3, a Not I site was incorporated into the JAK2 reverse primer and a Xba I site was added to the reverse primer of JAK3.
# The TEL/Jak3 fusion was prepared by ligation of the JAK3 Sal I/Not I cleaved kinase domain PCR product with the BamH I/Sal I restriction digested TEL product, followed by ligation of the ligation product into the BamH I/Not I digested pTRE2, to give the TEL/Jak3 fusion plasmid pTELJAK3.
# The growth factor dependant myelomonocytic cell line BaF3 bearing the pTET-off plasmid (Clontech) was transfected with either pTELJAK2 or pTELJAK3, and the transfected cells were selected for growth-factor independent cell growth. The BaF3 wild-type cells were cultured in DMEM containing 10% FCS, 10% WEHI 3B conditioned medium. The BaF3 TELJAK cells ([…]) were cultured in DMEM 10% Tet-System Approved FBS (without WEHI 3B conditioned medium).
# Cell suspensions were prepared by harvesting cells from culture (the cells used in this test were in late log phase growth with high viability.) Cells were diluted in the appropriate growth medium, as described above, to 1.1× final concentration (from 50,000 cell/mL to 200,000 cell/mL, depending on cell line).
# Compounds to be tested were added (10 μL, 10× final concentration) to a flat bottomed 96-well plate. The cellular suspension (90 μL per well) was then added, and the plate incubated for 40 hr at 37° C., 5% CO2. Alamar Blue 10 μL per well was added and the plates returned to the incubator for a further 4-6 hours. The plates were then read at 544 nm.
row,Structure (SMILES),GI50
1,"C=CC(=O)N(C)c1ccc(Sc2nc(Nc3ccc(N4CCOCC4)cc3)ncc2C)cc1 [Compound 173, N-methyl-N-(4-(5-methyl-2-(4-morpholinophenylao)pyrimidin-4-ylthio)phenyl)acrylamide]",< 1 µM
2,"C=CC(=O)Nc1ccc(Sc2ccnc(Nc3ccc(N4CCOCC4)cc3)n2)cc1OC [Compound 123, N-(2-methoxy-4-(2-(4-morpholinophenylao)pyrimidin-4-ylthio)phenyl)acrylamide]",< 5 µM
3,"Cc1cnc(Nc2ccc(N3CCOCC3)cc2)nc1Sc1ccc(N2C(=O)CSCC2=O)cc1 [Compound 231, 4-(4-(5-methyl-2-(4-morpholinophenylao)pyrimidin-4-ylthio)phenyl)thiomorpholine-3,5-dione]",< 20 µM
4,"C=CC(=O)Nc1ccc(Sc2ccnc(Nc3cccc(CO)c3)n2)cc1 [Compound 278, N-(4-(2-(3-(hydroxymethyl)phenylao)pyrimidin-4-ylthio)phenyl)acrylamide]",< 1 µM
5,"C=CC(=O)Nc1ccc(Sc2nc(Nc3ccc(C4CCN(C)CC4)cc3)ncc2C)cc1 [Compound 246, N-(4-(5-methyl-2-(4-(1-methylpiperidin-4-yl)phenylao)pyrimidin-4-ylthio)phenyl)acrylamide]",< 1 µM
6,"Cc1cnc(Nc2ccc(N3CCOCC3)cc2)nc1Sc1ccc(NC(=O)CSCC(=O)O)cc1 [Compound 230, 2-(2-(4-(5-methyl-2-(4-morpholinophenylao)pyrimidin-4-ylthio)phenylao)-2-oxoethylthio)acetic acid]",> 20 µM
7,"Nc1ccc(Sc2nc(Nc3cccc(N4CCOCC4)c3)ncc2I)cc1 [Compound 264, 4-(4-aophenylthio)-5-iodo-N-(3-morpholinophenyl)pyrimidin-2-ae]",< 5 µM
8,"C=CC(=O)Nc1ccc(Nc2nccc(SC)n2)cc1 [Compound 13, N-(4-(4-(methylthio)pyrimidin-2-ylao)phenyl)acrylamide]",> 20 µM
9,"C=CC(=O)Nc1ccc(Sc2nc(Nc3ccc(N4CCOCC4)nc3)ncc2C)cc1 [Compound 254, N-(4-(5-methyl-2-(6-morpholinopyridin-3-ylao)pyrimidin-4-ylthio)phenyl)acrylamide]",< 1 µM
10,"O=C(/C=C/Cl)Nc1cccc(Sc2ccnc(Nc3ccc(N4CCOCC4)cc3)n2)c1 [Compound 340, (E)-3-chloro-N-(3-(2-(4-morpholinophenylao)pyrimidin-4-ylthio)phenyl)acrylamide]",< 1 µM
11,"C=CC(=O)Nc1ccc(Sc2nc(Nc3ccc(NS(C)(=O)=O)c(OC)c3)ncc2C)cc1 [Compound 296, N-(4-(2-(3-methoxy-4-(methylsulfonamido)phenylao)-5-methylpyrimidin-4-ylthio)phenyl)acrylamide]",< 1 µM
12,"C=CC(=O)Nc1ccc(Sc2nc(Nc3cccc(N4CCOCC4)c3)ncc2I)cc1 [Compound 269, N-(4-(5-iodo-2-(3-morpholinophenylao)pyrimidin-4-ylthio)phenyl)acrylamide]",< 1 µM
13,"Cc1cnc(Nc2ccc(N3CCOCC3)cc2)nc1Sc1ccc(N)cc1Cl [Compound 251, 4-(4-ao-2-chlorophenylthio)-5-methyl-N-(4-morpholinophenyl)pyrimidin-2-ae]",> 20 µM
14,"C=CC(=O)Nc1cccc(Sc2ccnc(Nc3cccc(N4CCOCC4)c3)n2)c1 [Compound 110, N-(3-(2-(3-morpholinophenylao)pyrimidin-4-ylthio)phenyl)acrylamide]",< 1 µM
15,"Cc1cnc(Nc2ccc(N3CCN(C)CC3)cc2)nc1Sc1ccc(N)cc1 [Compound 244, 4-(4-aophenylthio)-5-methyl-N-(4-(4-methylpiperazin-1-yl)phenyl)pyrimidin-2-ae]",< 5 µM
16,C=CC(=O)Nc1ccc(Sc2nc(Nc3ccc(N4CCOCC4)cc3)ncc2C)cc1C [Compound 259],< 1 µM
17,"C=CC(=O)Nc1ccc(Sc2ccnc(Nc3cccc(N4CCOCC4)c3)n2)cc1 [Compound 77, N-(4-(2-(3-morpholinophenylao)pyrimidin-4-ylthio)phenyl)acrylamide]",< 1 µM
18,"Nc1ccc(Sc2ccnc(Nc3ccc(N4CCOCC4)cc3)n2)cc1 [Compound 27, 4-(4-aophenylthio)-N-(4-morpholinophenyl)pyrimidin-2-ae]",< 20 µM
19,"NCc1cccc(Sc2ccnc(Nc3ccc(N4CCOCC4)cc3)n2)c1 [Compound 75, 4-(3-(aomethyl)phenylthio)-N-(4-morpholinophenyl)pyrimidin-2-ae]",< 20 µM
20,"C=CC(=O)N(C)c1ccc(Sc2nc(Nc3ccc(N4CCOCC4)cc3)ncc2Br)cc1 [Compound 261, N-(4-(5-bromo-2-(4-morpholinophenylao)pyrimidin-4-ylthio)phenyl)-N-methylacrylamide]",< 1 µM
21,"Cc1cc(Sc2nc(Nc3ccc(N4CCOCC4)cc3)ncc2C)ccc1N [Compound 255, 4-(4-ao-3-methylphenylthio)-5-methyl-N-(4-morpholinophenyl)pyrimidin-2-ae]",< 20 µM
22,"C=CC(=O)Nc1ccc(Sc2nc(Nc3ccc(OC)c(OC)c3)ncc2C)cc1 [Compound 241, N-(4-(2-(3,4-dimethoxyphenylao)-5-methylpyrimidin-4-ylthio)phenyl)acrylamide]",< 1 µM
23,"N#Cc1nnn(Cc2ccc(Sc3ccnc(Nc4ccc(N5CCOCC5)cc4)n3)cc2)n1 [Compound 156, 2-(4-(2-(4-morpholinophenylao)pyrimidin-4-ylthio)benzyl)-2H-tetrazole-5-carbonitrile]",< 5 µM
24,"C=CC(=O)Nc1ccc(Sc2nc(Nc3ccc(N4CCN(C)CC4)c(OC)c3)ncc2C)cc1 [Compound 249, N-(4-(2-(3-methoxy-4-(4-methylpiperazin-1-yl)phenylao)-5-methylpyrimidin-4-ylthio)phenyl)acrylamide]",< 1 µM
25,"C=CC(=O)Nc1ccc(Sc2nc(Nc3ccc(N4CCN(C)CC4)cc3)ncc2C)cc1 [Compound 239, N-(4-(5-methyl-2-(4-(4-methylpiperazin-1-yl)phenylao)pyrimidin-4-ylthio)phenyl)acrylamide]",< 1 µM
26,"N#CCNCc1cccc(Sc2ccnc(Nc3ccc(N4CCOCC4)cc3)n2)c1 [Compound 68, 2-(3-(2-(4-morpholinophenylao)pyrimidin-4-ylthio)benzylao)acetonitrile]",< 20 µM
